Experimental data taken from the supplement of paper PMC11451515.

Columns and labels:
Details in all cases: 48 h
[1] = test system: NOMO1; assay: cell viability relative to DMSO control; higher = less cytotoxic
Method in brief: (§1)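 NOMO1 or SEM cells were plated at 500 cells/well and P12-Ichikawa cells at 1000 cells/well in 1536-well plates (5 μl), after each leukemia line had been adapted for at least four passages in each medium. Pin dosing delivered library compounds in DMSO at 11 threefold concentrations, 47 μM to 0.79 nM. CellTiter-Glo One luminescence was read after 48 h at 37°C. Viability is reported as a per-plate percentage of DMSO wells, with cell-free wells as background.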

[2] = test system: P12-Ichikawa; assay: as above
Method in brief: as §1

[3] = test system: SEM cells; assay: as above
Method in brief: as §1

[4] = test system: NOMO1; assay: AUC of viability dose-response curve (% viability x log10 dose units); higher = less sensitive
Method in brief: (§2)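 Medium-adapted leukemia cells in 1536-well plates, at 500 or 1000 cells/well, were incubated for 48 h at 37°C with library compounds in DMSO at 11 threefold doses from 47 μM to 0.79 nM. CellTiter-Glo One luminescence normalised per plate to DMSO and cell-free wells was fitted with a four-parameter log-logistic model over log10 doses. Area under the curve was integrated from this fit by trapezoidal rule, with curves beyond full viability scaled and failed quality-control curves removed.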

[5] = test system: P12-Ichikawa; assay: as above
Method in brief: as §2

[6] = test system: SEM cells; assay: as above
Method in brief: as §2

C#Cc1cccc(Nc2ncnc3cc(OC)c(OCCCCCCC(=O)NO)cc23)c1
cell viability [%]
Details	[1]	[2]	[3]
HPLM + 10% dialyzed FBS, 0.000781 µM	125	126	118
HPLM + 10% dialyzed FBS, 0.00234 µM	119	118	119
HPLM + 10% dialyzed FBS, 0.00702 µM	136	121	104
HPLM + 10% dialyzed FBS, 0.0211 µM	129	124	110
HPLM + 10% dialyzed FBS, 0.0632 µM	111	105	95.9
HPLM + 10% dialyzed FBS, 0.19 µM	98.2	69.2	73.4
HPLM + 10% dialyzed FBS, 0.569 µM	41.5	29.8	44
HPLM + 10% dialyzed FBS, 1.71 µM	18.4	8.83	15.1
HPLM + 10% dialyzed FBS, 5.12 µM	7.85	6.65	6.25
HPLM + 10% dialyzed FBS, 15.4 µM	8.02	6.4	5.23
HPLM + 10% dialyzed FBS, 46.1 µM	3.32	2.39	3.28
RPMI 5 mM glucose + 10% FBS, 0.000781 µM	–	–	88.3
RPMI 5 mM glucose + 10% FBS, 0.00234 µM	–	–	91.8
RPMI 5 mM glucose + 10% FBS, 0.00702 µM	–	–	75.6
RPMI 5 mM glucose + 10% FBS, 0.0211 µM	–	–	81.3
RPMI 5 mM glucose + 10% FBS, 0.0632 µM	–	–	69.8
RPMI 5 mM glucose + 10% FBS, 0.19 µM	–	–	46.3
RPMI 5 mM glucose + 10% FBS, 0.569 µM	–	–	26.5
RPMI 5 mM glucose + 10% FBS, 1.71 µM	–	–	6.61
RPMI 5 mM glucose + 10% FBS, 5.12 µM	–	–	4.45
RPMI 5 mM glucose + 10% FBS, 15.4 µM	–	–	3.81
RPMI 5 mM glucose + 10% FBS, 46.1 µM	–	–	1.74
RPMI 5 mM glucose + 10% dialyzed FBS, 0.000781 µM	–	–	119
RPMI 5 mM glucose + 10% dialyzed FBS, 0.00234 µM	–	–	123
RPMI 5 mM glucose + 10% dialyzed FBS, 0.00702 µM	–	–	108
RPMI 5 mM glucose + 10% dialyzed FBS, 0.0211 µM	–	–	120
RPMI 5 mM glucose + 10% dialyzed FBS, 0.0632 µM	–	–	117
RPMI 5 mM glucose + 10% dialyzed FBS, 0.19 µM	–	–	59.2
RPMI 5 mM glucose + 10% dialyzed FBS, 0.569 µM	–	–	28.8
RPMI 5 mM glucose + 10% dialyzed FBS, 1.71 µM	–	–	9.73
RPMI 5 mM glucose + 10% dialyzed FBS, 5.12 µM	–	–	6.06
RPMI 5 mM glucose + 10% dialyzed FBS, 15.4 µM	–	–	5.12
RPMI 5 mM glucose + 10% dialyzed FBS, 46.1 µM	–	–	2.79

AUC of viability dose-response curve
Details	[4]	[5]	[6]
HPLM + 10% dialyzed FBS	276	253	264
RPMI 5 mM glucose + 10% FBS	313	254	216
RPMI 5 mM glucose + 10% dialyzed FBS	300	244	254

Nc1nc(F)nc2c1ncn2[C@@H]1O[C@H](CO)[C@@H](O)[C@H]1O
[3], RPMI 5 mM glucose + 10% FBS
Details	cell viability [%]
0.000781 µM	114
0.00234 µM	119
0.00702 µM	125
0.0211 µM	141
0.0632 µM	115
0.19 µM	13.2
0.569 µM	10.9
1.71 µM	7.49
5.12 µM	6.64
15.4 µM	6.09
46.1 µM	6.22

AUC of viability dose-response curve
Details	[4]	[5]	[6]
HPLM + 10% dialyzed FBS	283	293	228
RPMI 5 mM glucose + 10% FBS	291	293	229
RPMI 5 mM glucose + 10% dialyzed FBS	279	282	217

CCCCC[C@H](O)/C=C/[C@H]1[C@H](O)CC(=O)[C@@H]1C/C=C\CCCC(=O)O
AUC of viability dose-response curve
Details	[4]	[5]	[6]
HPLM + 10% dialyzed FBS	449	460	456
RPMI 5 mM glucose + 10% FBS	453	457	458
RPMI 5 mM glucose + 10% dialyzed FBS	440	457	460

Cl.Nc1ccn([C@@H]2O[C@H](CO)[C@@H](O)C2(F)F)c(=O)n1
AUC of viability dose-response curve
Details	[4]	[5]	[6]
HPLM + 10% dialyzed FBS	263	230	179
RPMI 5 mM glucose + 10% FBS	243	223	175
RPMI 5 mM glucose + 10% dialyzed FBS	248	212	141

Clc1ccccc1CN1CCc2sccc2C1
Details	cell viability [%]
[2], HPLM + 10% dialyzed FBS, 0.000781 µM	120
[2], HPLM + 10% dialyzed FBS, 0.00234 µM	121
[2], HPLM + 10% dialyzed FBS, 0.00702 µM	117
[2], HPLM + 10% dialyzed FBS, 0.0211 µM	130
[2], HPLM + 10% dialyzed FBS, 0.0632 µM	129
[2], HPLM + 10% dialyzed FBS, 0.19 µM	132
[2], HPLM + 10% dialyzed FBS, 0.569 µM	129
[2], HPLM + 10% dialyzed FBS, 1.71 µM	59.8
[2], HPLM + 10% dialyzed FBS, 5.12 µM	15.5
[2], HPLM + 10% dialyzed FBS, 15.4 µM	14.4
[2], HPLM + 10% dialyzed FBS, 46.1 µM	16.7
[3], RPMI 5 mM glucose + 10% FBS, 0.000781 µM	94.3
[3], RPMI 5 mM glucose + 10% FBS, 0.00234 µM	148
[3], RPMI 5 mM glucose + 10% FBS, 0.00702 µM	120
[3], RPMI 5 mM glucose + 10% FBS, 0.0211 µM	139
[3], RPMI 5 mM glucose + 10% FBS, 0.0632 µM	133
[3], RPMI 5 mM glucose + 10% FBS, 0.19 µM	152
[3], RPMI 5 mM glucose + 10% FBS, 0.569 µM	135
[3], RPMI 5 mM glucose + 10% FBS, 1.71 µM	141
[3], RPMI 5 mM glucose + 10% FBS, 5.12 µM	144
[3], RPMI 5 mM glucose + 10% FBS, 15.4 µM	140
[3], RPMI 5 mM glucose + 10% FBS, 46.1 µM	33.3

AUC of viability dose-response curve
Details	[4]	[5]	[6]
HPLM + 10% dialyzed FBS	323	348	453
RPMI 5 mM glucose + 10% FBS	315	340	459
RPMI 5 mM glucose + 10% dialyzed FBS	322	373	460

C[C@@H](N)c1ccc(C(=O)Nc2ccnc3[nH]ccc23)cc1
cell viability [%], [3]
Details	HPLM + 10% dialyzed FBS	RPMI 5 mM glucose + 10% FBS
0.000781 µM	99.4	115
0.00234 µM	115	135
0.00702 µM	122	124
0.0211 µM	121	155
0.0632 µM	121	145
0.19 µM	144	140
0.569 µM	136	130
1.71 µM	118	139
5.12 µM	118	114
15.4 µM	105	86.7
46.1 µM	40.7	52.5

AUC of viability dose-response curve
Details	[4]	[5]	[6]
HPLM + 10% dialyzed FBS	462	471	454
RPMI 5 mM glucose + 10% FBS	455	461	437
RPMI 5 mM glucose + 10% dialyzed FBS	455	466	455

COc1ccc2c(c1OC)CN1CCc3cc4c(cc3C1C2)OCO4 (configuration not stated)
cell viability [%]
Details	[1]	[2]	[3]
HPLM + 10% dialyzed FBS, 0.000781 µM	86.4	94.5	85.3
HPLM + 10% dialyzed FBS, 0.00234 µM	82.4	96.2	80.1
HPLM + 10% dialyzed FBS, 0.00702 µM	98.4	101	86.5
HPLM + 10% dialyzed FBS, 0.0211 µM	99.3	104	104
HPLM + 10% dialyzed FBS, 0.0632 µM	109	101	87.4
HPLM + 10% dialyzed FBS, 0.19 µM	82.5	99.8	64.3
HPLM + 10% dialyzed FBS, 0.569 µM	96.7	97.2	72.8
HPLM + 10% dialyzed FBS, 1.71 µM	44.7	77	41.3
HPLM + 10% dialyzed FBS, 5.12 µM	14.9	15.9	13
HPLM + 10% dialyzed FBS, 15.4 µM	6.67	6.51	8.04
HPLM + 10% dialyzed FBS, 46.1 µM	5.61	6.63	7.89
RPMI 5 mM glucose + 10% FBS, 0.000781 µM	106	86.1	92.5
RPMI 5 mM glucose + 10% FBS, 0.00234 µM	92.4	87	93.6
RPMI 5 mM glucose + 10% FBS, 0.00702 µM	89.2	92.7	87
RPMI 5 mM glucose + 10% FBS, 0.0211 µM	98.8	93.9	93.6
RPMI 5 mM glucose + 10% FBS, 0.0632 µM	98.4	94	84.3
RPMI 5 mM glucose + 10% FBS, 0.19 µM	89.9	89	45.6
RPMI 5 mM glucose + 10% FBS, 0.569 µM	100	86.7	59.8
RPMI 5 mM glucose + 10% FBS, 1.71 µM	42.6	53.6	20.2
RPMI 5 mM glucose + 10% FBS, 5.12 µM	16	17.7	9.42
RPMI 5 mM glucose + 10% FBS, 15.4 µM	6.1	5.68	7.3
RPMI 5 mM glucose + 10% FBS, 46.1 µM	5.21	4.82	6.85
RPMI 5 mM glucose + 10% dialyzed FBS, 0.000781 µM	88	84.8	79.6
RPMI 5 mM glucose + 10% dialyzed FBS, 0.00234 µM	92.7	87.7	83.1
RPMI 5 mM glucose + 10% dialyzed FBS, 0.00702 µM	93.3	92.6	96.7
RPMI 5 mM glucose + 10% dialyzed FBS, 0.0211 µM	103	94.4	90.8
RPMI 5 mM glucose + 10% dialyzed FBS, 0.0632 µM	102	92.5	99
RPMI 5 mM glucose + 10% dialyzed FBS, 0.19 µM	92.2	83.2	55
RPMI 5 mM glucose + 10% dialyzed FBS, 0.569 µM	92.9	83.5	56.5
RPMI 5 mM glucose + 10% dialyzed FBS, 1.71 µM	49.3	52.9	28.8
RPMI 5 mM glucose + 10% dialyzed FBS, 5.12 µM	20.5	13.4	11.3
RPMI 5 mM glucose + 10% dialyzed FBS, 15.4 µM	5.52	7.72	8.19
RPMI 5 mM glucose + 10% dialyzed FBS, 46.1 µM	4.95	6.88	8.01

AUC of viability dose-response curve
Details	[4]	[5]	[6]
HPLM + 10% dialyzed FBS	322	356	288
RPMI 5 mM glucose + 10% FBS	330	316	263
RPMI 5 mM glucose + 10% dialyzed FBS	331	311	271
